In paper PMC8073907, “Peptide targeting of lysophosphatidylinositol-sensing GPR55 for osteoclastogenesis tuning” (Cell Communication and Signaling : CCS, 2021):

Legend:
[1] = test system: GPR55-silenced HeLa cells; assay: LPI-induced ERK1/2 and p38 phosphorylation in shGPR55-HeLa clones (Western blot); type: cell-based, human
Description: For stable interference of GPR55, HeLa cells were plated at 1.5 × 10^5 cells/well in six-well plates in growth medium without antibiotics, and 24 h later, the cells were transfected with 1.7 µg/well OmicsLink short hairpin (sh)RNA expression clone CSHCTR001-CU6 (shCTRL) or clone HSH022476-3-CU6 (shGPR55) from GeneCopoeia (Rockville, MD, USA), using Lipofectamine 2000, according the manufacturer instructions. Forty-eight hours after transfection, HeLa clones stably expressing shRNAs were selected in growth medium containing 0.3 µg/mL puromycin. The efficiency of interference was monitored by real-time PCR using the primers listed in the Additional file 1: Table S1. HPRT1 was followed as a housekeeping gene.
Twenty-four hours after transfection (HEK293T, HeLa cells or clones) or 72 h after interference (RAW264.7 cells), the cells were washed twice with HBSS^++, serum deprived (HEK293T cells for 4 h in DMEM; HeLa cells and clones for 2 h in MEM plus 2 mM glutamine and 25 mM HEPES; RAW264.7 cells for 2 h in DMEM), washed once again with HBSS^++, incubated in stimulation buffer (HBSS^++ with 10 mM HEPES, 0.4% faf-BSA for HEK293T cells; HBSS^++ with 25 mM HEPES and 0.01% faf-BSA for HeLa cells, clones, and RAW264.7 cells) in the absence or presence of stimuli, at 37 °C for the indicated times. Incubations were terminated by washing the cells twice with cold HBSS^++, and the analyses were performed as reported below.
Cell lysates were obtained by scraping the cells into phospho-lysis buffer: 50 mM Tris–HCl, pH 7.5, 100 mM NaCl, 5 mM EDTA, 1% Triton X-100, 50 mM NaF, 40 mM β-glycerophosphate, 200 µM sodium orthovanadate, plus protease and phosphatase inhibitors (Roche). […]
Protein lysates were subjected to SDS-PAGE, and after electrophoresis, the proteins were transferred to a nitrocellulose membrane (PerkinElmer Life Science, Boston, MA, USA). […] The membranes were then washed twice with T-TBS and once with TBS for 5 min, and the signals were detected by ECL (Amersham Pharmacia, Piscataway, NJ, USA). […]

RAW264.7 cells = assay: RANKL-induced transcription of osteoclastogenesis markers in RAW264.7 cells (real-time PCR); type: cell-based, murine
In short: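 RAW264.7 cells in α-MEM/10% FBS were treated with 15–30 ng/mL RANKL, refreshed every 48 h, with or without GPR55 ligands (e.g. 0.5 µM ML-191, 30 µM O1918, 1 µM LPI) or 150 nM peptide-P1. Marker mRNA was quantified by SYBR Green real-time PCR normalised to β2-microglobulin; Gpr55 was knocked down by siRNA where applied.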

lysophosphatidylinositol [LPI]
LPI response of empty vector (pcDNA3.1) transfected clones ([1]; 10 µM 18:0 LPI): did not respond to LPI addition
ERK1/2 and p38 activation ([1]; 10 µM soybean LPI, or 1 µM ionomycin 5 min): did not show any ERK1/2 and p38 activation
further stimulation of RANKL-induced Trap transcription (RAW264.7 cells; 1 µM soybean LPI, 24 h): 0.2 -fold
increase in RANKL-induced Cathepsin-k mRNA (RAW264.7 cells; 1 µM soybean LPI, 24 h): 1.4 -fold
further stimulation of RANKL-induced Ctr transcription (RAW264.7 cells; 1 µM soybean LPI, 48 h): 2.4 -fold
further stimulation of RANKL-induced Nfatc1 transcription (RAW264.7 cells; 1 µM soybean LPI, 48 h): 1.1 -fold
further stimulation of RANKL-induced Trap transcription (RAW264.7 cells; 1 µM soybean LPI, 48 h): 0.7 -fold
increase in RANKL-induced Cathepsin-k mRNA (RAW264.7 cells; 1 µM soybean LPI, 48 h): 1.2 -fold
further stimulation of RANKL-induced Ctr transcription (RAW264.7 cells; 1 µM soybean LPI, 72 h): 1.6 -fold
further stimulation of RANKL-induced Trap transcription (RAW264.7 cells; 1 µM soybean LPI, 72 h): 0.7 -fold
modulation of RANKL-induced Cathepsin-k transcription (RAW264.7 cells; 1 µM soybean LPI, 72 h): no modulation
effect on Mmp-9 transcription (RAW264.7 cells; 1 µM soybean LPI, any of the times analysed): no effects on Mmp-9 transcription
effect on osteoclastogenesis marker transcription after washout (RAW264.7 cells; LPI washout after the initial 24 h, data not shown): did not produce any significant effects
RANKL-induced transcription of Ctr, si-NT versus si-GPR55 cells (RAW264.7 cells; RANKL 15 ng/mL, 72 h, 1 µM soybean LPI or 1 µM ML-184): similarly increased RANKL-induced transcription of Ctr only in precursor cells treated with non-targeting siRNAs, and not in those silenced for GPR55
